Results on six substances are retold here after patent US11041010B2, “Hybrid peptidomimetics for use in neuropathic pain” (Uniwersytet Warszawski, priority 2017, dated 2021).

Test [1] has as its system CCI mice (mouse model of neuropathic pain). The experiment in a line: Mouse model of neuropathic pain (CCI), von Frey and cold plate tests taken together, intrathecal administration. The settings on record: for analgesic activity of the reference compounds (mice, first stage): reason why no ED50 was calculated; for analgesic activity in neuropathic pain (mice): CCI mice, von Frey and cold plate tests, FIGS. 1-7 (B, C). It counts as in vivo. The protocol: (§1) Albino Swiss mice were subjected to a loose unilateral ligation of the right sciatic nerve (a chronic constriction injury, CCI) according to the model developed by Bennett and Xie, Pain 33, 87-107, […]. […] The tests permitted to determine the analgesic efficiency of the novel compounds in the model of neuropathic pain. In the control mice (due to the absence of hypersensitivity, which characterizes neuropathic pain) at the same time points, a test of tail flick was conducted to determine pain threshold in the acute pain after intrathecal administration of the hybrid peptidomimetics.

Test [2] deals with healthy mice (control mice). The experiment in a line: Tail flick test, acute pain threshold in control mice after intrathecal administration. The settings on record: for analgesic activity in control mice: healthy mice, FIGS. 1-7 (A). The test is classed as in vivo, mouse. The protocol:
as §1
(§2) The results were presented for doses in micrograms, at which a half (50%) of the maximum effect (ED50) is reached. Calculation of the ED50 value requires clear dose-dependent effects.
Background: Hot-plate and tail-flick tests time the reaction to a heat stimulus.

Test [3] concerns CCI mice (mouse model of neuropathic pain). Put plainly: Von Frey test (allodynia) in mice with sciatic nerve injury (CCI), intrathecal administration. It counts as in vivo. To be noted: mice in the neuropathic pain model, range in brackets. The protocol: as §1, §2
Test [4] shares this test system. Put plainly: Cold plate test (hyperalgesia) in mice with sciatic nerve injury (CCI), intrathecal administration. It counts as in vivo. To be noted: mice in the neuropathic pain model, cold plate 2° C., range in brackets. The protocol:
as §1, §2

In test [5] the test system is healthy rats (control rats). Put plainly: Acute pain threshold in healthy (control) rats after intrathecal administration. The test is classed as in vivo. The settings on record: 0.1 μg/5 μl/rat, FIGS. 10-13 (A).
Test [6] has as its system CCI rats (rat model of neuropathic pain). The experiment in a line: Rat model of neuropathic pain (CCI), von Frey and cold plate tests after intrathecal administration. The test is classed as in vivo. The settings on record: 0.1 μg/5 μl/rat, FIGS. 10-13 (B, C). How it is done:
Wistar rats were subjected to cannulation for intrathecal administration by a method of Yaksh, T. L., Rudy, T. A., described in Physiol. Behay. 17, 1031-1036, 1976, and seven days after this procedure, a loose unilateral ligation of the right sciatic nerve (a chronic constriction injury, CCI) according to the model developed by Bennett and Xie (1988). After seven days from the CCI procedure, behavioral tests were conducted: the von Frey test and cold plate test to measure hypersensitivity to tactile and thermal stimuli, respectively. Hypersensitivity developed after injury of the nerve to two types of stimuli is a symptom of neuropathy.

Test [7] concerns CCI mice (mouse model of neuropathic pain). Put plainly: Mouse model of neuropathic pain (CCI), von Frey and cold plate tests after intravenous administration. The test is classed as in vivo. To be noted: CCI mice, 15, 30 and 120 min, FIGS. 8-9. The protocol: In the second stage of the pharmacological studies, the effect of the peripheral, intravenous administration of the hybrid peptidomimetics according to the invention (UW3, UW5) on the sensitivity to a mechanical stimulus (A) (von Frey test) and thermal stimulus (B) (cold plate test) threshold compared to a control group receiving water for injection was tested on mice in the neuropathy model (FIGS. 8 and 9). The studies were conducted at days 7-14 from the CCI procedure on mice at 15, 30 and 120 min after intravenous administration of the hybrid peptidomimetics UW3 and UW5 in the selected doses.

Positions of bridges follow the written chain, without caps; N, C: chain ends. Non-standard residues stand in square brackets, D forms with d. No end group written: not given here. d2Nal = N[C@H](Cc1ccc2ccccc2c1)C(=O)O; Nle = CCCC[C@H](N)C(=O)O; Ahx = NCCCCCC(=O)O; βAla = NCCC(=O)O

For “Tyr-D-Ala-Gly-Phe-4AMB-Nle-cyclo[Asp-His-D-Nal(2′)-Arg-Trp-Lys]-NH2 [UW6]”, the “analgesic activity of the reference compounds (mice, first stage)” value (“analgesic activity … (mice, first stage)” below) in test [1] is “very weak and dose dependency-deprived analgesic activity”.

For the substance “Tyr-D-Ala-Gly-Phe-NH2 [UW1, reference compound]”, in test [2] (control mice, dose giving 50% of maximum effect, range in brackets), the “Control mice Tail flick test ED50” value is reported as 0.03 (0.02-0.05) μg. Also, in test [2], the “analgesic activity in control mice” value is reported as “show activity”. Besides, the “Von Frey test (allodynia) ED50” value in test [3] is recorded as 0.16 (0.1-0.25) μg. For the same substance, in test [4], the “Cold plate (hyperalgesia) ED50” value is 9.3 (2.7-32)^ μg. The “analgesic activity in neuropathic pain (mice)” value (from here on “analgesic activity … (mice)”) in test [1] is “weakened in both or at least one hypersensitivity determining test”. For the same substance, in test [5], the “analgesic activity in healthy (control) rats” value (“analgesic activity in healthy” below) is listed as “weak activity”. Further, in test [6], the “analgesic activity in the rat model of neuropathic pain” value (shortened to “analgesic activity in the rat model”) was “weak activity”.

As to “Y[dA]GF[Ahx][Ahx][Nle]DH[d2Nal]RWK-NH2 (lactam 8-13) [UW5]”, the “analgesic activity in control mice” value in test [2] is given as “limited analgesic efficiency”. The “Von Frey test (allodynia) ED50” value in test [3] is 0.02 (0.00003-15) μg. In addition, in test [4], the “Cold plate (hyperalgesia) ED50” value is reported as 0.2 (0.008-6.5) μg. In addition, in test [1], the “analgesic activity … (mice)” value is “higher analgesic efficiency”. The “analgesic efficiency after peripheral, intravenous administration” value in test [7] is reported as “high analgesic efficiency”. Also, the “analgesic activity in healthy” value in test [5] is “very weak activity”. The “analgesic activity in the rat model” value in test [6] is recorded as “reaches maximum values”.

As for “Y[dA]GF[Ahx][Nle]DH[d2Nal]RWK-NH2 (lactam 7-12) [UW3]”, in test [2], the “analgesic activity in control mice” value was “limited analgesic efficiency”. Besides, the “Von Frey test (allodynia) ED50” value in test [3] was 0.0004 (0.0001-0.002) μg. The “Cold plate (hyperalgesia) ED50” value in test [4] is 0.008 (0.005-0.01) μg. Besides, in test [1], the “analgesic activity … (mice)” value is reported as “higher analgesic efficiency”. In test [7], the “analgesic efficiency after peripheral, intravenous administration” value is listed as “high analgesic efficiency”. For the same substance, the “analgesic activity in healthy” value in test [5] is on record as “very weak activity”. The “analgesic activity in the rat model” value in test [6] was “reaches maximum values”.

Take “Y[dA]GF[dA][Nle]DH[d2Nal]RWK-NH2 (lactam 7-12) [UW2]”: in test [1], the “analgesic activity … (mice, first stage)” value was “very weak and dose dependency-deprived analgesic activity”.

Regarding “Y[dA]GF[βAla][Nle]DH[d2Nal]RWK-NH2 (lactam 7-12) [UW4]”, in test [1], the “analgesic activity … (mice, first stage)” value is “very weak and dose dependency-deprived analgesic activity”.
